Laboratory results from patent US8143446B2, “Substituted acrylamide derivative and pharmaceutical composition comprising the same” (Daiichi Sankyo Company, Limited, priority 2005, dated 2012).

Columns and labels:
[1] = tested on: 4-week old male Wistar rats; assay: Evaluation of blood calcium concentration-decreasing activity (serum calcium after oral dosing of immature rats); type: in vivo, rat; settings: serum 6 hours after administration, fasted 4-week old male Wistar rats, vs normal control group
Experimental: The blood calcium concentration in a living body is strictly controlled and constantly maintained by intestinal absorption and urinary excretion and release (bone resorption) and adhesion (bone formation) in bone tissues. […] The bone resorption-suppressing activity of compounds according to the present invention was evaluated by administering the compounds to immature rats and observing decreases in blood calcium concentration as an index of the activity.
The test was conducted using 4-week old male Wistar rats fasted for 12 to 24 hours. Each compound to be tested was suspended in 0.5% methyl cellulose (MC). The suspension was orally administered to the rats at a dose of 5 mL/kg. Similarly, rats of a normal control group were administered with 0.5% MC alone. Then, blood was drawn from rat jugular vein under ether anesthesia 6 hours after the administration of each test compound or 0.5% MC. The blood was immediately centrifuged (10000 rpm, 5 minutes) at room temperature to separate serum. The calcium concentration of each serum was measured by an autoanalyzer (JEOL, JCA-BM2250). Five rats were used for each test group.
The evaluation was conducted by a comparative test with the normal control group and based on the serum calcium concentration-decreasing rate (%) calculated according to the following formula:
Serum calcium concentration-decreasing rate (%)=(([serum calcium concentration in normal control group] - [serum calcium concentration in test compound administration group])/[serum calcium concentration in normal control group])×100.

[2] = tested on: adjuvant arthritis model rats; assay: Evaluation of bone density decrease-suppressing activity and anti-arthritic activity (adjuvant arthritis model); type: in vivo, rat; settings: oral 10 mg/kg once a day for 7 days from day 14 after adjuvant; for Paw edema-suppressing rate (%): hind paw volume on day 21, 8-week old female Lewis rats; for Bone density decrease-suppressing rate (%): thighbone bone density on day 21, 8-week old female Lewis rats
Experimental: In rheumatoid arthritis, not only swelling and pain caused by arthritis but also systemic bone mass decrease and articular destruction caused by a significant increase in bone resorption are observed.
The test was conducted using 8-week old female Lewis rats. Mycobacterium butyricum cells which were killed by heat were ground in an agate mortar, suspended in liquid paraffin sterilized by dry heat to a concentration of 2 mg/mL, and treated with ultrasound to prepare an adjuvant. Under ether anesthesia, rats in a control group other than a normal control group and rats in a test compound administration group were intradermally injected with 0.05 mL of this adjuvant each time (0.1 mL/rat in total) at two portions of the base of the tail. Starting from 14 days after the injection of the adjuvant, each rat was orally administered with 5 mL/kg of a test compound suspended in 0.5% MC once a day for 7 days. Similarly, the rats of the control group were administered with 0.5% MC alone. On the 21st day after the adjuvant injection, hind paw volumes were measured by using a paw edema volume determining device (MUROMACHI KIKAI, TK-101CMP). Then, the thighbone was biopsied. The thighbone was, after removing soft tissues, sufficiently fixed, dehydrated, and dried using ethanol. The bone density of the thighbone was measured with a bone density analyzer (Aloka, DOS-600 EX-IIIR). Five rats were used for each test group.
The evaluation was conducted by comparison tests with the normal control group and the control group and based on the bone density decrease-suppressing rate (%) and the paw edema-suppressing rate (%) calculated according to the following formulae: Bone density decrease-suppressing rate (%)=(1−([thighbone bone density in normal control group]−[thighbone bone density in test compound administration group])/([thighbone bone density in normal control group]−[thighbone bone density in control group]))×100 Paw edema-suppressing rate (%)=(1−([paw volume of test compound administration group]−[paw volume in normal control group])/([paw volume in control group]−[paw volume in normal control group]))×100

Row | SMILES | Serum calcium concentration-decreasing rate (%) ([1]; administration dose 10 mg/kg) | Paw edema-suppressing rate (%) [2] [%] | Bone density decrease-suppressing rate (%) [2] [%] | melting point [°C] | Serum calcium concentration-decreasing rate (%) ([1]; administration dose 20 mg/kg)
1 | O=C(NCCO)/C(=C/c1ccc(Cl)cc1)NC(=O)c1ccc(OCCC2CC2)cc1 [Example 14, N-((Z)-2-(4-Chlorophenyl)-1-{[(2-hydroxyethyl)amino]carbonyl}vinyl)-4-(2-cyclopropylethoxy)benzamide] | 33.2 | 12 | 86 |  | 
2 | COc1ccc(CCOc2ccc(C(=O)N/C(=C\c3ccc(OC(F)(F)F)cc3)C(=O)NCCO)cc2)cc1 [Example 3, N-{(Z)-1-{[(2-Hydroxyethyl)amino]carbonyl}-2-[4-(trifluoromethoxy)phenyl]vinyl}-4-[2-(4-methoxyphenyl)ethoxy]benzamide] |  | 22 | 57 |  | 
3 | CC(C)COc1ccc(C(=O)N/C(=C\c2ccc3ccccc3c2)C(=O)NCCO)cc1 [Example 2-6, N-[(Z)-1-{[(2-hydroxyethyl)amino]carbonyl}-2-(2-naphthyl)vinyl]-4-isobutoxybenzamide] |  |  |  | 150 to 152 | 
4 | CC(C)COc1ccc(C(=O)N/C(=C\c2ccc(OC(C)C)cc2)C(=O)NCCO)cn1 [Example 2-19, N-[(Z)-1-{[(2-hydroxyethyl)amino]carbonyl}-2-(4-isopropoxyphenyl)vinyl]-6-isobutoxynicotinamide] |  |  |  | 74 to 76 | 
5 | COc1ccc(CCOc2ccc(C(=O)N/C(=C\c3ccc(C4CC4)cc3)C(=O)NCCO)cc2)cc1 [Example 5, N-((Z)-2-(4-Cyclopropylphenyl)-1-{[(2-hydroxyethyl)amino]carbonyl}vinyl)-4-[2-(4-methoxyphenyl)ethoxy]benzamide] | 27.6 | 25 | 54 |  | 
6 | CC(C)Oc1ccc(/C=C(\NC(=O)c2ccc(OCCc3ccc(N(C)C)cc3)cc2)C(=O)NCCO)cc1.Cl |  |  |  | 103 to 105 | 
7 | CC(C)COc1ccc(C(=O)N/C(=C\c2ccc(OC(C)C)cc2)C(=O)NCCO)c(F)c1 [Example 2-21, 2-fluoro-N-[(Z)-1-{[(2-hydroxyethyl)amino]carbonyl}-2-(4-isopropoxyphenyl)vinyl]-4-isobutoxybenzamide] |  |  |  | 51 to 54 | 
8 | O=C(NCCO)/C(=C/c1ccc(C2CC2)cc1)NC(=O)c1ccc(OCCC2CC2)cc1 [Example 9, 4-(2-Cyclopropylethoxy)-N-((Z)-2-(4-cyclopropylphenyl)-1-{[(2-hydroxyethyl)amino]carbonyl}vinyl)benzamide] |  | 11 | 37 |  | 29.3
9 | O=C(NCCO)/C(=C/c1ccc(OC(F)(F)F)cc1)NC(=O)c1ccc(OCCC2CC2)cc1 [Example 11, 4-(2-Cyclopropylethoxy)-N-{(Z)-1-{[(2-hydroxyethyl)amino]carbonyl}-2-[4-(trifluoromethoxy)phenyl]vinyl}benzamide] |  | 29 | 40 |  | 30.6
10 | O=C(NCCO)/C(=C/c1ccc(OC2CC2)cc1)NC(=O)c1ccc(OCCC2CC2)cc1 [Example 16, 4-(2-Cyclopropylethoxy)-N-((Z)-2-[4-(cyclopropyloxy)phenyl]-1-{[(2-hydroxyethyl)amino]carbonyl}vinyl)benzamide] | 27.2 | 35 | 70 |  | 
11 | CC(C)COc1ccc(C(=O)N/C(=C\c2ccc(C(F)(F)F)nc2)C(=O)NCCO)cc1 [Example 2-16, N-{(Z)-1-{[(2-hydroxyethyl)amino]carbonyl}-2-[6-(trifluoromethyl)pyridin-3-yl]vinyl}-4-isobutoxybenzamide] |  |  |  | 184 to 187 | 
